Starred links: 1 amine or outer side, 2 acyl side, 3 side chain; linkers in the order of their positions; H or OH if unused. Non-standard residues stand in square brackets, D forms with d. Residues, ends and D or L forms follow the SMILES beside them. Groups on a side chain read outwards from the residue. *: point of attachment. C18 diacid = O=C(O)CCCCCCCCCCCCCCCCC(=O)*; γGlu = O=C(O)[C@H](CCC(=O)[*:2])N[*:1]; PEG2 = NCCOCCOCCC(=O)O; Aib = CC(C)(N)C(=O)O
Molecular target: T1, human GLP-1R (Homo sapiens, UniProt P43220)
T1 construct: expressed in transfected cells
Assay: In vitro activity on GLP-1R, CRE-luciferase HEK-293 cells
Type: cell-based
Settings: ratio of EC50 GLP-1R to EC50 GCGR
Procedure: 5000 of HEK-293 cells, which are used in CRE-luciferase system and express human GCGR or GLP-1R stably, were inoculated into 384 well plates according to […] DMEM/10% FBS media/well. […] After incubation, […] of luciferase reagent was added directly to each plate and mixed gently for 2 minutes. The plates were placed into an Elmer Perkin plate reader for reading. Concentration curve of the compound was made by drawing software Prism 5, and the EC50 value was calculated.

T1 sequence (P43220 24-463): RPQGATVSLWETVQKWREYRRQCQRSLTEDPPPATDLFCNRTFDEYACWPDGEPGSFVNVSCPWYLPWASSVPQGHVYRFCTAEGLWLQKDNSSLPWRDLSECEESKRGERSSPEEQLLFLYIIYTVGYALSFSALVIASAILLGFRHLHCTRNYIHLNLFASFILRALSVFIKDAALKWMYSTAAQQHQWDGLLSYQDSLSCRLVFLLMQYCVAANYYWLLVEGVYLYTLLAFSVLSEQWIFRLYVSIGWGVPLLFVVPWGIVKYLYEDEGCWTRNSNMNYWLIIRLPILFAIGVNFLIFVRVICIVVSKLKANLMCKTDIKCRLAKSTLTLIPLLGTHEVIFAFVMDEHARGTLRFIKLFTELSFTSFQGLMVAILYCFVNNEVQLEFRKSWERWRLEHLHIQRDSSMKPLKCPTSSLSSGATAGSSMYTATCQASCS

Row | Structure (SMILES) | GLP-1R/GCGR
1 | CC(C)C[C@H](NC(=O)[C@H](CC(C)C)NC(=O)[C@H](Cc1c[nH]c2ccccc12)NC(=O)[C@H](CCC(=O)O)NC(=O)[C@@H](NC(=O)[C@H](Cc1ccccc1)NC(=O)[C@H](CC(=O)O)NC(=O)[C@H](Cc1c[nH]cn1)NC(=O)[C@H](C)NC(=O)[C@H](C)NC(=O)[C@H](CCCCNC(=O)CCOCCOCCNC(=O)CCOCCOCCNC(=O)CC[C@H](NC(=O)CCCCCCCCCCCCCCCCC(=O)O)C(=O)O)NC(=O)[C@H](CO)NC(=O)[C@H](CC(=O)O)NC(=O)[C@H](CC(C)C)NC(=O)[C@H](Cc1ccc(O)cc1)NC(=O)[C@H](CCCCN)NC(=O)[C@H](CO)NC(=O)[C@H](Cc1ccc(O)cc1)NC(=O)[C@H](CC(=O)O)NC(=O)[C@H](CO)NC(=O)[C@@H](NC(=O)[C@H](Cc1ccccc1)NC(=O)[C@@H](NC(=O)CNC(=O)[C@H](CCC(N)=O)NC(=O)[C@@H](CO)NC(=O)[C@@H](N)Cc1c[nH]cn1)[C@@H](C)O)[C@@H](C)O)C(C)C)C(=O)N[C@@H](CCCNC(=N)N)C(=O)N[C@@H](C)C(N)=O [Compound 1] | 0.4
2 | CC[C@H](C)[C@H](NC(=O)[C@H](Cc1ccccc1)NC(=O)[C@H](CCC(=O)O)NC(=O)[C@H](CCCCNC(=O)CCOCCOCCNC(=O)CCOCCOCCNC(=O)CC[C@H](NC(=O)CCCCCCCCCCCCCCCCC(=O)O)C(=O)O)NC(=O)[C@H](C)NC(=O)[C@H](C)NC(=O)[C@H](CCCCN)NC(=O)[C@H](CCC(=O)O)NC(=O)[C@H](CC(=O)O)NC(=O)[C@H](CC(C)C)NC(=O)[C@H](Cc1ccc(O)cc1)NC(=O)[C@H](CCCCN)NC(=O)[C@H](CO)NC(=O)[C@H](Cc1ccc(O)cc1)NC(=O)[C@H](CC(=O)O)NC(=O)[C@H](CO)NC(=O)[C@@H](NC(=O)[C@H](Cc1ccccc1)NC(=O)[C@@H](NC(=O)CNC(=O)[C@H](CCC(N)=O)NC(=O)[C@@H](CO)NC(=O)[C@@H](N)Cc1c[nH]cn1)[C@@H](C)O)[C@@H](C)O)C(=O)N[C@@H](CCC(=O)O)C(=O)N[C@@H](Cc1c[nH]c2ccccc12)C(=O)N[C@@H](CC(C)C)C(=O)N[C@@H](CC(C)C)C(=O)N[C@@H](CCCNC(=N)N)C(=O)N[C@@H](C)C(N)=O [Compound 2] (H-H[dS]QGTFTSDYSKYLDEKAAK([PEG2-PEG2-γGlu-C18 diacid])EFIEWLLRA-NH2) | 0.1
3 | CC(C)C[C@H](NC(=O)[C@H](CC(C)C)NC(=O)[C@H](Cc1c[nH]c2ccccc12)NC(=O)[C@H](CCC(=O)O)NC(=O)[C@@H](NC(=O)[C@H](Cc1ccccc1)NC(=O)[C@H](CC(=O)O)NC(=O)[C@H](Cc1c[nH]cn1)NC(=O)[C@H](C)NC(=O)[C@H](C)NC(=O)[C@H](CCCCNC(=O)CCOCCOCCNC(=O)CCOCCOCCNC(=O)CC[C@H](NC(=O)CCCCCCCCCCCCCCCCC(=O)O)C(=O)O)NC(=O)[C@H](CO)NC(=O)[C@H](CC(=O)O)NC(=O)[C@H](CC(C)C)NC(=O)[C@H](Cc1ccc(O)cc1)NC(=O)[C@H](CCCCN)NC(=O)[C@H](CO)NC(=O)[C@H](Cc1ccc(O)cc1)NC(=O)[C@H](CC(=O)O)NC(=O)[C@H](CO)NC(=O)[C@@H](NC(=O)[C@H](Cc1ccccc1)NC(=O)[C@@H](NC(=O)CNC(=O)[C@H](CCC(N)=O)NC(=O)[C@@H](CO)NC(=O)[C@@H](N)Cc1c[nH]cn1)[C@@H](C)O)[C@@H](C)O)C(C)C)C(=O)N[C@@H](CC(N)=O)C(=O)NCC(=O)NCC(=O)N1CCC[C@H]1C(=O)N[C@@H](CO)C(=O)N[C@@H](CO)C(=O)NCC(=O)N[C@@H](C)C(=O)N1CCC[C@H]1C(=O)N1CCC[C@H]1C(=O)N1CCC[C@H]1C(=O)N[C@@H](CO)C(N)=O [Compound 3] | 0.6
4 | CCCCCCCCCCCCCCCC(=O)N[C@@H](CCC(=O)NCCOCCOCCC(=O)NCCOCCOCCC(=O)NCCCC[C@H](NC(=O)[C@H](CC(=O)O)NC(=O)[C@H](CC(C)C)NC(=O)[C@H](Cc1ccc(O)cc1)NC(=O)[C@H](CCCCN)NC(=O)[C@H](CO)NC(=O)[C@H](Cc1ccc(O)cc1)NC(=O)[C@H](CC(=O)O)NC(=O)[C@H](CO)NC(=O)[C@@H](NC(=O)[C@H](Cc1ccccc1)NC(=O)[C@@H](NC(=O)CNC(=O)[C@H](CCC(N)=O)NC(=O)[C@@H](CO)NC(=O)[C@@H](N)Cc1c[nH]cn1)[C@@H](C)O)[C@@H](C)O)C(=O)N[C@@H](CCCNC(=N)N)C(=O)N[C@@H](CCCNC(=N)N)C(=O)N[C@@H](C)C(=O)N[C@@H](CCC(N)=O)C(=O)N[C@@H](CC(=O)O)C(=O)N[C@@H](Cc1ccccc1)C(=O)N[C@H](C(=O)N[C@@H](CCC(N)=O)C(=O)N[C@@H](Cc1c[nH]c2ccccc12)C(=O)N[C@@H](CC(C)C)C(=O)N[C@@H](CCSC)C(=O)N[C@@H](CC(N)=O)C(=O)N[C@H](C(=O)NCC(=O)NCC(=O)N1CCC[C@H]1C(=O)N[C@@H](CO)C(=O)N[C@@H](CO)C(=O)NCC(=O)N[C@@H](C)C(=O)N1CCC[C@H]1C(=O)N1CCC[C@H]1C(=O)N1CCC[C@H]1C(=O)N[C@@H](CO)C(N)=O)[C@@H](C)O)C(C)C)C(=O)O [Compound 10] | 3.3
5 | CSCC[C@H](NC(=O)[C@H](CC(C)C)NC(=O)[C@H](Cc1c[nH]c2ccccc12)NC(=O)[C@H](CCC(N)=O)NC(=O)[C@@H](NC(=O)[C@H](Cc1ccccc1)NC(=O)[C@H](CC(=O)O)NC(=O)[C@H](CCC(N)=O)NC(=O)[C@H](C)NC(=O)[C@H](CCCNC(=N)N)NC(=O)[C@H](CCCCNC(=O)CCOCCOCCNC(=O)CCOCCOCCNC(=O)CCCCCCCCCCCCCCCCC(=O)O)NC(=O)C(C)(C)NC(=O)[C@H](CC(=O)O)NC(=O)[C@H](CC(C)C)NC(=O)[C@H](Cc1ccc(O)cc1)NC(=O)[C@H](CCCCN)NC(=O)[C@H](CO)NC(=O)[C@H](Cc1ccc(O)cc1)NC(=O)[C@H](CC(=O)O)NC(=O)[C@H](CO)NC(=O)[C@@H](NC(=O)[C@H](Cc1ccccc1)NC(=O)[C@@H](NC(=O)CNC(=O)[C@H](CCC(N)=O)NC(=O)[C@@H](CO)NC(=O)[C@@H](N)Cc1c[nH]cn1)[C@@H](C)O)[C@@H](C)O)C(C)C)C(=O)N[C@@H](CC(N)=O)C(=O)N[C@H](C(=O)NCC(=O)NCC(=O)N1CCC[C@H]1C(=O)N[C@@H](CO)C(=O)N[C@@H](CO)C(=O)NCC(=O)N[C@@H](C)C(=O)N1CCC[C@H]1C(=O)N1CCC[C@H]1C(=O)N1CCC[C@H]1C(=O)N[C@@H](CO)C(N)=O)[C@@H](C)O [Compound 12] (H-H[dS]QGTFTSDYSKYLD[Aib]K([PEG2-PEG2-C18 diacid])RAQDFVQWLMNTGGPSSGAPPPS-NH2; N-terminus assumed) | 2.1
6 | CCCCCCCCCCCCCCCC(=O)N[C@@H](CCC(=O)NCCOCCOCCC(=O)NCCOCCOCCC(=O)NCCCC[C@H](NC(=O)C(C)(C)NC(=O)[C@H](CC(=O)O)NC(=O)[C@H](CC(C)C)NC(=O)[C@H](Cc1ccc(O)cc1)NC(=O)[C@H](CCCCN)NC(=O)[C@H](CO)NC(=O)[C@H](Cc1ccc(O)cc1)NC(=O)[C@H](CC(=O)O)NC(=O)[C@H](CO)NC(=O)[C@@H](NC(=O)[C@H](Cc1ccccc1)NC(=O)[C@@H](NC(=O)CNC(=O)[C@H](CCC(N)=O)NC(=O)[C@@H](CO)NC(=O)[C@@H](N)Cc1c[nH]cn1)[C@@H](C)O)[C@@H](C)O)C(=O)N[C@@H](CCCNC(=N)N)C(=O)N[C@@H](C)C(=O)N[C@@H](CCC(N)=O)C(=O)N[C@@H](CC(=O)O)C(=O)N[C@@H](Cc1ccccc1)C(=O)N[C@H](C(=O)N[C@@H](CCC(N)=O)C(=O)N[C@@H](Cc1c[nH]c2ccccc12)C(=O)N[C@@H](CC(C)C)C(=O)N[C@@H](CCSC)C(=O)N[C@@H](CC(N)=O)C(=O)N[C@H](C(=O)NCC(=O)NCC(=O)N1CCC[C@H]1C(=O)N[C@@H](CO)C(=O)N[C@@H](CO)C(=O)NCC(=O)N[C@@H](C)C(=O)N1CCC[C@H]1C(=O)N1CCC[C@H]1C(=O)N1CCC[C@H]1C(=O)N[C@@H](CO)C(N)=O)[C@@H](C)O)C(C)C)C(=O)O [Compound 13] | 2.8

From patent publication US10479819B2 (priority 2014, dated 2019)
